pIC50: −log10 of the molar value.
target: T1, gamma-secretase (partially purified extract of IMR-32 cell membranes; substrate MBP-C125 Swe fusion protein, cleavage at the Aβ40 site) (Homo sapiens, UniProt P49768); assay: Gamma-secretase APP enzyme assay (Example A); type: biochemical; conditions: class symbols; assay described in Example A; read-out: γAPP IC50
T1 construct: a partially purified extract of IMR-32 cell membranes as the gamma-secretase enzyme preparation; endogenous in cells; host or cells: IMR-32 cell membranes, partially purified extract
Excerpt: The gamma-secretase APP enzyme assay was designed to measure the specific proteolytic cleavage of an APP substrate (MBP-C125 Swe fusion protein) at the Aβ40 site. […] This assay involved two steps beginning with the enzymatic reaction generating a cleavage product that was captured with an immobilized antibody specific for the neo-epitope Aβ40 site. The captured cleavage product was then detected in a sandwich ELISA assay with a biotinylated reporter antibody that is specific to Aβ(17-28). Streptavidin-linked alkaline phosphatase was then added that would generate a fluorescent signal proportional to the amount of cleavage product.
This warmed solution of BigCHAPS (N,N-Bis(3-D-gluconamidopropyl)cholamide) detergent was used to dissolve Brain Extract Type-V (lipid containing a minimum of 40% phosphatidylethanolamine) from Sigma (St. Louis, Mo.) to a concentration of 8 mg/ml. This solution containing BigCHAPS and lipid at 8 mg/ml is then diluted to 0.53 mg/ml lipid with a pre-warmed solution of Hepes and sodium chloride.
Gamma-secretase was then added to a 96-well micro-titre plate and then incubated with various concentrations of inhibitor for 30 minutes at 37° C. MBPC125 substrate was then added to initiate the reaction that would run for two hours at 37° C. The reaction was quenched with the addition of SDS to a final concentration of 0.1% and then 100 μl of the reaction mixture was transferred to a capture ELISA plate and incubated overnight at 4° C. Detection of the cleavage product was performed using a standard sandwich ELISA assay and quantified using a six point standard curve.

First: N#Cc1ccc2c(c1)C1Cc3n[nH]cc3C2N1S(=O)(=O)c1ccc(C(F)(F)F)nc1 (single isomer, unassigned) [compound 172]
Second: O=S(=O)(c1ccc(C(F)(F)F)nc1)N1C2Cc3n[nH]cc3C1c1cccc(F)c12 (single isomer, unassigned) [compound 184]
The pIC50 of the first is lower: under 6.00 for the first, 6.00 to 6.30 for the second.

N#Cc1ccc2c(c1)C1Cc3n[nH]cc3C2N1S(=O)(=O)c1ccc(C(F)(F)F)nc1 (single isomer, unassigned) [compound 174] and O=S(=O)(c1ccc(C(F)(F)F)nc1)N1C2Cc3n[nH]cc3C1c1cccc(F)c12 (single isomer, unassigned) [compound 185] cannot be ordered by pIC50: over 7.00 for the first, over 7.00 for the second.

O=S(=O)(c1ccc(C(F)(F)F)nc1)N1C2Cc3[nH]ncc3C1c1cc(F)ccc12 (single isomer, unassigned) [compound 179] and O=S(=O)(c1ccc(C(F)(F)F)nc1)N1C2Cc3[nH]ncc3C1c1ccc(Cl)cc12 (single isomer, unassigned) [compound 223] fall in the same range of pIC50: 6.00 to 6.30 for the first, 6.00 to 6.30 for the second.

O=S(=O)(c1ccc(C(F)(F)F)nc1)N1C2Cc3[nH]ncc3C1c1cc(F)ccc12 (single isomer, unassigned) [compound 180] and O=S(=O)(c1ccc(C(F)(F)F)nc1)N1C2Cc3[nH]ncc3C1c1ccc(Cl)cc12 (single isomer, unassigned) [compound 224] cannot be ordered by pIC50: over 7.00 for the first, over 7.00 for the second.

First: O=C1c2[nH]ncc2C2c3cccc(F)c3C1N2S(=O)(=O)c1ccc(C(F)(F)F)nc1 (single isomer, unassigned) [compound 192]
Second: O=S(=O)(c1ccc(C(F)(F)F)nc1)N1C2Cc3[nH]ncc3C1c1c(Cl)cccc12 (single isomer, unassigned) [compound 232]
The pIC50 of the first is higher: over 7.00 for the first, 6.00 to 6.30 for the second.

Compared with O=C1c2[nH]ncc2C2c3cccc(F)c3C1N2S(=O)(=O)c1ccc(C(F)(F)F)nc1 (single isomer, unassigned) [compound 193], O=S(=O)(c1ccc(C(F)(F)F)nc1)N1C2Cc3[nH]ncc3C1c1c(Cl)cccc12 (single isomer, unassigned) [compound 233] is higher in pIC50: 6.00 to 6.30 for the first, over 7.00 for the second.

O=S(=O)(c1ccc(Cl)cc1)N1C2Cc3[nH]ncc3C1c1c(F)cccc12 (single isomer, unassigned) [compound 230] and O=S(=O)(c1ccc(C(F)(F)F)cc1)N1C2Cc3[nH]ncc3C1c1ccccc12 (stereo not shown) [compound 72] cannot be ordered by pIC50: under 6.00 for the first, under 6.00 for the second.

O=S(=O)(c1ccc(Cl)cc1)N1C2Cc3[nH]ncc3C1c1c(F)cccc12 (single isomer, unassigned) [compound 231] and O=S(=O)(c1ccc(C(F)(F)F)cc1)N1C2Cc3[nH]ncc3C1c1cccnc12 (stereo not shown) [compound 100] cannot be ordered by pIC50: over 7.00 for the first, over 7.00 for the second.

First: O=S(=O)(c1ccc(C(F)(F)F)nc1)N1C2Cc3[nH]ncc3C1c1cc(-c3ccc(F)cc3)ccc12 (single isomer, unassigned) [compound 244]
Second: O=S(=O)(c1ccc(C(F)(F)F)nc1)N1C2Cc3[nH]ncc3C1c1ccccc12 (stereo not shown) [compound 98]
The pIC50 of the first is lower: under 6.00 for the first, over 7.00 for the second.

Compared with O=S(=O)(c1ccc(C(F)(F)F)nc1)N1C2Cc3[nH]ncc3C1c1cc(-c3ccc(F)cc3)ccc12 (single isomer, unassigned) [compound 245], O=S(=O)(c1ccc(C(F)(F)F)nc1)N1C2Cc3[nH]ncc3C1c1cc(C3CC3)ccc12 (single isomer, unassigned) [compound 246] is lower in pIC50: 6.30 to 7.00 for the first, under 6.00 for the second. The first is the more potent here.

O=S(=O)(c1ccc(C(F)(F)F)nc1)N1C2Cc3[nH]ncc3C1c1cc(C3CC3)ccc12 (single isomer, unassigned) [compound 247] and O=S(=O)(c1ccc(C(F)(F)F)nc1)N1C2Cc3[nH]ncc3C1CC(c1ccc3c(c1)OCO3)C2 (stereo not shown) [compound 108] cannot be ordered by pIC50: over 7.00 for the first, over 7.00 for the second.

O=S(=O)(c1ccc(C(F)(F)F)nc1)N1C2Cc3n[nH]cc3C1c1nc(Br)ccc12 (single isomer, unassigned) [compound 248] and O=S(=O)(c1ccc(C(F)(F)F)nc1)N1C2Cc3n[nH]cc3C1c1c(F)ccc(F)c12 (stereo not shown) [compound 131] cannot be ordered by pIC50: over 7.00 for the first, over 7.00 for the second.

First: O=S(=O)(c1ccc(C(F)(F)F)nc1)N1C2Cc3n[nH]cc3C1c1nc(Br)ccc12 (single isomer, unassigned) [compound 249]
Second: O=S(=O)(c1ccc(C(F)(F)F)nc1)N1C2Cc3ccccc3C1c1c[nH]nc1C2 (stereo not shown) [compound 88]
The pIC50 of the first is lower: under 6.00 for the first, over 7.00 for the second. The second is the more potent here.

First: O=S(=O)(c1ccc(C(F)(F)F)cc1)N1C2c3cn[nH]c3C(F)C1c1cccc(F)c12 (single isomer, unassigned) [compound 262]
Second: O=C1c2n[nH]cc2C2c3c(F)cccc3C1N2S(=O)(=O)c1ccc(C(F)(F)F)cc1 (stereo not shown) [compound 103]
The pIC50 of the first is lower: under 6.00 for the first, over 7.00 for the second. The second is the more potent here.

O=S(=O)(c1ccc(C(F)(F)F)cc1)N1C2c3cn[nH]c3C(F)C1c1cccc(F)c12 (single isomer, unassigned) [compound 263] and O=S(=O)(c1ccc(C(F)(F)F)cc1)N1C2c3c[nH]nc3C(F)(F)C1c1cccc(F)c12 (stereo not shown) [compound 123] cannot be ordered by pIC50: over 7.00 for the first, over 7.00 for the second.

O=S(=O)(c1ccc(C(F)(F)F)cc1)N1C2C=C(C3CC3)C1c1c[nH]nc1C2 (stereo not shown) [compound 44] and O=S(=O)(c1ccc(C(F)(F)F)cc1)N1C2Cc3n[nH]cc3C1C(C1CC1)C2 (stereo not shown) [compound 45] cannot be ordered by pIC50: over 7.00 for the first, over 7.00 for the second.

First: O=S(=O)(c1ccc(C(F)(F)F)cc1)N1C2Cc3[nH]ncc3C1C=C2c1ccc(F)cc1 (stereo not shown) [compound 60]
Second: O=S(=O)(c1ccc(C(F)(F)F)cc1)N1C2Cc3[nH]ncc3C1C(c1ccc(F)cc1)C2 (stereo not shown) [compound 61]
The pIC50 of the first is lower: 6.30 to 7.00 for the first, over 7.00 for the second.

O=C1c2n[nH]cc2C2c3cc(F)c(F)cc3C1N2S(=O)(=O)c1ccc(C(F)(F)F)cc1 (stereo not shown) [compound 69] and O=C1c2n[nH]cc2C2c3cccc(F)c3C1N2S(=O)(=O)c1ccc(C(F)(F)F)cc1 (stereo not shown) [compound 104] cannot be ordered by pIC50: over 7.00 for the first, over 7.00 for the second.

Compared with O=C1c2[nH]ncc2C2c3ccccc3C1N2S(=O)(=O)c1ccc(C(F)(F)F)cc1 (stereo not shown) [compound 71], O=S(=O)(c1ccc(C(F)(F)F)cc1)N1C2Cc3[nH]ncc3C1c1cnccc12 (stereo not shown) [compound 120] is lower in pIC50: over 7.00 for the first, under 6.00 for the second.

O=S(=O)(c1ccc(C(F)(F)F)cc1)N1C2c3cc(F)c(F)cc3C1C(F)(F)c1n[nH]cc12 (stereo not shown) [compound 77] and O=S(=O)(c1ccc(C(F)(F)F)cc1)N1C2c3c[nH]nc3C(F)(F)C1c1c(F)cccc12 (stereo not shown) [compound 121] cannot be ordered by pIC50: over 7.00 for the first, over 7.00 for the second.

O=S(=O)(c1ccc(C(F)(F)F)cc1)N1C2Cc3[nH]ncc3C1c1cc(F)c(F)cc12 (stereo not shown) [compound 95] and O=S(=O)(c1ccc(C(F)(F)F)cc1)N1C2c3c[nH]nc3C(F)(F)C1c1cccc(F)c12 (stereo not shown) [compound 127] cannot be ordered by pIC50: over 7.00 for the first, over 7.00 for the second.

O=S(=O)(c1ccc(C(F)(F)F)cc1)N1C2Cc3n[nH]cc3C1CC(c1ccc(Br)cc1)C2 (stereo not shown) [compound 106] and O=S(=O)(c1ccc(C(F)(F)F)cc1)N1C2Cc3n[nH]cc3C1CC(c1cccc(Br)c1)C2 (stereo not shown) [compound 125] cannot be ordered by pIC50: over 7.00 for the first, over 7.00 for the second.

O=S(=O)(c1ccc(Cl)cc1)N1C2Cc3[nH]ncc3C1CC(c1ccncn1)C2 (stereo not shown) [compound 107] and O=S(=O)(c1ccc(C(F)(F)F)cc1)N1C2Cc3[nH]ncc3C1CC(c1ccc(-c3cscn3)cc1)C2 (stereo not shown) [compound 116] cannot be ordered by pIC50: over 7.00 for the first, over 7.00 for the second.

Going from NC1CCCCC1Nc1ccc(C2CC3Cc4n[nH]cc4C(C2)N3S(=O)(=O)c2ccc(C(F)(F)F)cc2)cc1 (stereo not shown) [compound 117] to O=S(=O)(c1ccc(C(F)(F)F)cc1)N1C2Cc3[nH]ncc3C1CC(c1ccc(-n3cccn3)cc1)C2 (stereo not shown) [compound 124], the pIC50 rises from under 6.00 to over 7.00.

O=S(=O)(c1ccc(C(F)(F)F)cc1)N1C2c3c[nH]nc3C(F)(F)C1c1cccc(F)c12 (stereo not shown) [compound 128] and O=S(=O)(c1ccc(C(F)(F)F)nc1)N1C2Cc3n[nH]cc3C1c1cccc(C3CC3)c1C2 (stereo not shown) [compound 134] cannot be ordered by pIC50: over 7.00 for the first, over 7.00 for the second.

O=S(=O)(c1ccc(C(F)(F)F)cc1)N1C2Cc3[nH]ncc3C1CC(c1cccc(-n3ccnc3)c1)C2 (stereo not shown) [compound 132] and O=S(=O)(c1ccc(C(F)(F)F)cc1)N1C2Cc3[nH]ncc3C1CC(c1cccc(-n3cccn3)c1)C2 (stereo not shown) [compound 133] cannot be ordered by pIC50: over 7.00 for the first, over 7.00 for the second.

In the case of O=S(=O)(c1ccc(C(F)(F)F)nc1)N1C2Cc3c(C4CC4)cccc3C1Cc1n[nH]cc12 (stereo not shown) [compound 135], the pIC50 was over 7.00.

same assay, conditions: γAPP IC50 (nM), class symbols; assay described in Example A

Compared with O=S(=O)(c1ccc(C(F)(F)F)nc1)N1C2Cc3[nH]ncc3C1c1ncc(F)cc12 (single isomer, unassigned) [compound 259], O=S(=O)(c1ccc(C(F)(F)F)nc1)N1C2Cc3n[nH]cc3C1c1c(F)cccc12 (stereo not shown) [compound 130] is lower in IC50: over 1000 nM for the first, under 100 nM for the second. The second is the more potent here.

O=S(=O)(c1ccc(C(F)(F)F)nc1)N1C2Cc3[nH]ncc3C1c1ncc(F)cc12 (single isomer, unassigned) [compound 260] and O=S(=O)(c1ccc(C(F)(F)F)cc1)N1C2Cc3n[nH]cc3C1c1c(F)cccc12 (stereo not shown) [compound 96] cannot be ordered by IC50: under 100 nM for the first, under 100 nM for the second.

same assay, conditions: γAPP IC50 (nM), numeric bounds given instead of class symbols; assay described in Example A

In the case of O=S(=O)(c1ccc(C(F)(F)F)nc1)N1C2Cc3n[nH]cc3C1c1c(F)cccc12 (stereo not shown) [compound 129], the IC50 was over 10 nM.

Reference: patent publication US8283358B2, “N-sulfonamido polycyclic pyrazolyl compounds” (Elan Pharmaceuticals, Inc., priority 2008, dated 2012)
